US7687484B2, “Transporter enhanced corticosteroid activity” (priority 2006, dated 2010)
“Also recorded” adds a separate entry of the source.

Molecular target: T1, Corticosteroid Binding Globulin (CBG), transcortin (Homo sapiens, UniProt P08185)
T1 sequence (P08185 23-405): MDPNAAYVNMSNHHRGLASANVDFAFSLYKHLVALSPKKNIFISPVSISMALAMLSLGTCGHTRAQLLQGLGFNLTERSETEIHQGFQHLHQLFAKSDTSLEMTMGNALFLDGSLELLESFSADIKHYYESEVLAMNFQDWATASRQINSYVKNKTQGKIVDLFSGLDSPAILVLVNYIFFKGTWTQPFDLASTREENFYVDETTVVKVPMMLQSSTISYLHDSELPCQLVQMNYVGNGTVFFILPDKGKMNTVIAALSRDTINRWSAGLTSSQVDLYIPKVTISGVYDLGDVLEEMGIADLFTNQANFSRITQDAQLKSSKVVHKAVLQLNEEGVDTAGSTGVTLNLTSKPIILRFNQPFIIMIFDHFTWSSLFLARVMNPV
Assay: not given
Settings: CBG binding activity class; cited from earlier work

SMILES | Class
CC(=O)[C@@]1(O)CC[C@H]2[C@@H]3CC=C4C[C@@H](O)CC[C@]4(C)[C@H]3CC[C@@]21C [17α-hydroxypregnenolone] | 3
C[C@]12CC[C@@H]3c4ccc(O)cc4CC[C@H]3[C@@H]1C[C@@H](O)[C@@H]2O [estriol] | 3
C[C@]12C=CC(=O)C=C1CCC1C2[C@@H](O)C[C@@]2(C)C1CC[C@]2(O)C(=O)CO (stereo partly shown) [Prednisolone, prednisolone] | 1
C[C@]12CC[C@H]3[C@@H](CCC4=CC(=O)CC[C@@]43C)[C@@H]1CC[C@@H]2O [testosterone] | 2
CC(=O)[C@H]1CC[C@H]2[C@@H]3CCC4=CC(=O)CC[C@@H]4[C@H]3CC[C@]12C [19-norprogesterone] | 2
C[C@]12CCC(=O)C=C1CC[C@@H]1[C@@H]2CC[C@@]2(C)[C@H]1CC[C@]2(O)C(=O)CO [11-deoxycortisol] | 1
C[C@]12CC[C@H]3[C@@H](CCC4=CC(=O)CC[C@@H]43)[C@@H]1CC[C@@H]2O [19-nortestosterone] | 2
CC1CC2(C)C(=CC1=O)CCC1C2C(O)CC2(C)C1CCC2(O)C(=O)CO (stereo not drawn) [2α-methylcortisol] | 1
C[C@]12CC[C@H]3[C@@H](CCC4=CC(=O)CC[C@@]43C)[C@@H]1CC[C@@H]2C(=O)CO [11-deoxycorticosterone] | 1
CC(=O)OCC(=O)[C@@]1(O)CC[C@H]2[C@@H]3CCC4=CC(=O)CC[C@]4(C)[C@H]3[C@@H](O)C[C@@]21C [cortisolacetat] | 1
CC(=O)[C@H]1CC[C@H]2[C@@H]3CC=C4C[C@@H](O)CC[C@]4(C)[C@H]3CC[C@]12C [pregnenolone] | 3
C[C@@H]1C[C@@]2(C)C(=CC1=O)CC[C@H]1[C@@H]3CC[C@](O)(C(=O)CO)[C@@]3(C)C[C@H](O)[C@@]12F [2α-methyl-9α-fluoro-cortisol] | 2
CC(=O)[C@H]1CC[C@H]2[C@@H]3CCC4=CC(=O)CC[C@]4(C)[C@H]3C(=O)C[C@]12C [4-pregnene-3,11,20-trione] | 2
C[C@]12C[C@@H](O)[C@H]3[C@@H](CCC4=CC(=O)CC[C@@]43C)[C@@H]1CC[C@@H]2C(=O)CO [epicorticosterone] | 1

Same assay, conditions: CBG binding affinity, literature data; cited from earlier work

SMILES | Log 1/K
CC(=O)[C@@]1(O)CC[C@H]2[C@@H]3CC=C4C[C@@H](O)CC[C@]4(C)[C@H]3CC[C@@]21C [17α-hydroxypregnenolone] | −5.000
C[C@]12CC[C@@H]3c4ccc(O)cc4CC[C@H]3[C@@H]1C[C@@H](O)[C@@H]2O [estriol] | −5.000
C[C@]12CC[C@H]3[C@@H](CCC4=CC(=O)CC[C@@]43C)[C@@H]1CC[C@@H]2O [testosterone] | −6.724
CC(=O)[C@H]1CC[C@H]2[C@@H]3CCC4=CC(=O)CC[C@@H]4[C@H]3CC[C@]12C [19-norprogesterone] | −6.817
C[C@]12CCC(=O)C=C1CC[C@@H]1[C@@H]2CC[C@@]2(C)[C@H]1CC[C@]2(O)C(=O)CO [11-deoxycortisol] | −7.881
C[C@]12CC[C@H]3[C@@H](CCC4=CC(=O)CC[C@@H]43)[C@@H]1CC[C@@H]2O [19-nortestosterone] | −6.144
CC1CC2(C)C(=CC1=O)CCC1C2C(O)CC2(C)C1CCC2(O)C(=O)CO (stereo not drawn) [2α-methylcortisol] | −7.688
C[C@]12CC[C@H]3[C@@H](CCC4=CC(=O)CC[C@@]43C)[C@@H]1CC[C@@H]2C(=O)CO [11-deoxycorticosterone] | −7.653
CC(=O)OCC(=O)[C@@]1(O)CC[C@H]2[C@@H]3CCC4=CC(=O)CC[C@]4(C)[C@H]3[C@@H](O)C[C@@]21C [cortisolacetat] | −7.553
CC(=O)[C@H]1CC[C@H]2[C@@H]3CC=C4C[C@@H](O)CC[C@]4(C)[C@H]3CC[C@]12C [pregnenolone] | −5.225
C[C@@H]1C[C@@]2(C)C(=CC1=O)CC[C@H]1[C@@H]3CC[C@](O)(C(=O)CO)[C@@]3(C)C[C@H](O)[C@@]12F [2α-methyl-9α-fluoro-cortisol] | −5.797
CC(=O)[C@H]1CC[C@H]2[C@@H]3CCC4=CC(=O)CC[C@]4(C)[C@H]3C(=O)C[C@]12C [4-pregnene-3,11,20-trione] | −6.779
C[C@]12C[C@@H](O)[C@H]3[C@@H](CCC4=CC(=O)CC[C@@]43C)[C@@H]1CC[C@@H]2C(=O)CO [epicorticosterone] | −7.200

Molecular target: T2, transcortin (CBG) (Homo sapiens, UniProt P08185)
T2 construct: from tissue; host or cells: plasma from venous blood of healthy volunteers, charcoal-treated, diluted 100-fold
T2 sequence (P08185 23-405): T1 sequence (P08185 23-405)
Assay: Binding of corticosteroids to transcortin: 3H-cortisol competition in charcoal-treated diluted plasma
Settings: CBG Est. IC50 (nM), estimated; unpublished results Bodor, Kurucz 2006
Method: Experimental procedure: Venous blood was collected from healthy volunteers into heparin-containing tubes (5 Us/100 ml serum) and cells were separated from plasma by centrifugation (1500 g for 15 min). […] Charcoal-treated plasma was diluted 100-fold with binding buffer (10 mM Tris-HCl; 2 mM DTT (dithiotreitol); 1.5 mM EDTA; 0.02 M Na2MoO4; 10% Glycerol; pH 7.4) and was stored aliquoted at −80° C. […] The assay ingredients were mixed and the tubes were incubated for 1 hour on ice. At the end of the incubation, 0.2 ml of charcoal suspension (0.5% Norit A and 0.05% BSA) was added to each tube. The tubes were briefly agitated and incubated for an additional 10 min at 0° C. They were then centrifuged for 10 min at 15 000 g, and the same aliquots from the clear supernatants were quantitatively decanted into counting vials and combined with 3 ml of toluene-based scintillation fluid. […] Specific binding and IC50-values were calculated.

SMILES | IC50 [nM]
C[C@]12C=CC(=O)C=C1CCC1C2[C@@H](O)C[C@@]2(C)C1CC[C@]2(O)C(=O)CO (stereo partly shown) [Prednisolone, prednisolone] | 7

Same assay, conditions: IC50-values (nM) average ± SEM (n), 3 nM 3H-cortisol, 1 hour on ice, plasma diluted 100-fold

SMILES | IC50 [nM]
C[C@]12C=CC(=O)C=C1CCC1C2[C@@H](O)C[C@@]2(C)C1CC[C@]2(O)C(=O)CO (stereo partly shown) [Prednisolone, prednisolone] | 6.7 ± 1.6

System: forearms of human volunteers
Assay: Human vasoconstriction (blanching) testing
Assay type: in vivo
Parameters: key to Vasoconstriction activity (total score of 4 tests): sum of 4 tests, each 0 = normal skin to 4 = very intense pallor
Settings: 0.1 mM, 2 hr after removal, 4 h application
Method: Solutions of LE, HC and PRN (0.1 or 1 mM) alone, or mixtures of LE and HC (0.1+0.1 mM, or 1+1 mM), or LE and PRN (0.1+0.1 mM, or 1+1 mM) were prepared with a vehicle containing absolute ethanol and propylene glycol (9:1). […] After evaporation of ethanol (20 min), the films were applied to the forearms of human volunteers for 4 hours. Subsequently, the vasoconstriction reaction was read and judged by the appearance of pallor at various time intervals after the removal of the discs and films. The grading scale was as follows: 0, normal skin; 1, slight pallor; 2, pallor with at least two corners outlined; 3, even pallor with a clear outlined of the application sites; 4, very intense pallor. Due to the relatively high variations in response between the volunteers, a total score of 4 tests at each time point was taken for the activity evaluation.

SMILES | Vasoconstriction activity (total score of 4 tests)
C[C@]12C=CC(=O)C=C1CCC1C2[C@@H](O)C[C@@]2(C)C1CC[C@]2(O)C(=O)CO (stereo partly shown) [Prednisolone, prednisolone] | 0

Same assay, conditions: 0.1 mM, 4 hr after removal

SMILES | Vasoconstriction activity (total score of 4 tests)
C[C@]12C=CC(=O)C=C1CCC1C2[C@@H](O)C[C@@]2(C)C1CC[C@]2(O)C(=O)CO (stereo partly shown) [Prednisolone, prednisolone] | 0

Same assay, conditions: 0.1 mM, 6 hr after removal

SMILES | Vasoconstriction activity (total score of 4 tests)
C[C@]12C=CC(=O)C=C1CCC1C2[C@@H](O)C[C@@]2(C)C1CC[C@]2(O)C(=O)CO (stereo partly shown) [Prednisolone, prednisolone] | 0

Same assay, conditions: 0.1 mM, 8 hr after removal

SMILES | Vasoconstriction activity (total score of 4 tests)
C[C@]12C=CC(=O)C=C1CCC1C2[C@@H](O)C[C@@]2(C)C1CC[C@]2(O)C(=O)CO (stereo partly shown) [Prednisolone, prednisolone] | 0

Same assay, conditions: 0.1 mM, 10 hr after removal

SMILES | Vasoconstriction activity (total score of 4 tests)
C[C@]12C=CC(=O)C=C1CCC1C2[C@@H](O)C[C@@]2(C)C1CC[C@]2(O)C(=O)CO (stereo partly shown) [Prednisolone, prednisolone] | 0

Same assay, conditions: 0.1 mM, 16 hr after removal

SMILES | Vasoconstriction activity (total score of 4 tests)
C[C@]12C=CC(=O)C=C1CCC1C2[C@@H](O)C[C@@]2(C)C1CC[C@]2(O)C(=O)CO (stereo partly shown) [Prednisolone, prednisolone] | 0

Same assay, conditions: 0.1 mM, 18 hr after removal

SMILES | Vasoconstriction activity (total score of 4 tests)
C[C@]12C=CC(=O)C=C1CCC1C2[C@@H](O)C[C@@]2(C)C1CC[C@]2(O)C(=O)CO (stereo partly shown) [Prednisolone, prednisolone] | 0

Same assay, conditions: 0.1 mM, 24 hr after removal

SMILES | Vasoconstriction activity (total score of 4 tests)
C[C@]12C=CC(=O)C=C1CCC1C2[C@@H](O)C[C@@]2(C)C1CC[C@]2(O)C(=O)CO (stereo partly shown) [Prednisolone, prednisolone] | 0

Same assay, conditions: 1 mM, 2 hr after removal, 4 h application

SMILES | Vasoconstriction activity (total score of 4 tests)
C[C@]12C=CC(=O)C=C1CCC1C2[C@@H](O)C[C@@]2(C)C1CC[C@]2(O)C(=O)CO (stereo partly shown) [Prednisolone, prednisolone] | 0

Same assay, conditions: 1 mM, 4 hr after removal

SMILES | Vasoconstriction activity (total score of 4 tests)
C[C@]12C=CC(=O)C=C1CCC1C2[C@@H](O)C[C@@]2(C)C1CC[C@]2(O)C(=O)CO (stereo partly shown) [Prednisolone, prednisolone] | 0

Same assay, conditions: 1 mM, 6 hr after removal

SMILES | Vasoconstriction activity (total score of 4 tests)
C[C@]12C=CC(=O)C=C1CCC1C2[C@@H](O)C[C@@]2(C)C1CC[C@]2(O)C(=O)CO (stereo partly shown) [Prednisolone, prednisolone] | 0

Same assay, conditions: 1 mM, 8 hr after removal

SMILES | Vasoconstriction activity (total score of 4 tests)
C[C@]12C=CC(=O)C=C1CCC1C2[C@@H](O)C[C@@]2(C)C1CC[C@]2(O)C(=O)CO (stereo partly shown) [Prednisolone, prednisolone] | 0

Same assay, conditions: 1 mM, 10 hr after removal

SMILES | Vasoconstriction activity (total score of 4 tests)
C[C@]12C=CC(=O)C=C1CCC1C2[C@@H](O)C[C@@]2(C)C1CC[C@]2(O)C(=O)CO (stereo partly shown) [Prednisolone, prednisolone] | 0

Same assay, conditions: 1 mM, 16 hr after removal

SMILES | Vasoconstriction activity (total score of 4 tests)
C[C@]12C=CC(=O)C=C1CCC1C2[C@@H](O)C[C@@]2(C)C1CC[C@]2(O)C(=O)CO (stereo partly shown) [Prednisolone, prednisolone] | 0

Same assay, conditions: 1 mM, 18 hr after removal

SMILES | Vasoconstriction activity (total score of 4 tests)
C[C@]12C=CC(=O)C=C1CCC1C2[C@@H](O)C[C@@]2(C)C1CC[C@]2(O)C(=O)CO (stereo partly shown) [Prednisolone, prednisolone] | 0

Same assay, conditions: 1 mM, 24 hr after removal

SMILES | Vasoconstriction activity (total score of 4 tests)
C[C@]12C=CC(=O)C=C1CCC1C2[C@@H](O)C[C@@]2(C)C1CC[C@]2(O)C(=O)CO (stereo partly shown) [Prednisolone, prednisolone] | 0

Same assay, conditions: by itself, concentration range 0.1 to 1 mM, human skin; listed as PRN

SMILES | Vasoconstriction activity alone (in words)
C[C@]12C=CC(=O)C=C1CCC1C2[C@@H](O)C[C@@]2(C)C1CC[C@]2(O)C(=O)CO (stereo partly shown) [Prednisolone, prednisolone] | do not yield any detectable activity; also recorded: no activity
